These results are taken from publication PMC8772772, “Enantioselective Synthesis and Pharmacological Evaluation of Aza-CGP37157–Lipoic Acid Hybrids for the Treatment of Alzheimer’s Disease” (Antioxidants, 2022).

The assay relates to NRF2. The experiment in a line: NRF2 nuclear localization, immunocytochemistry in AREc32 cells. Type of assay: cell-based. The conditions noted are these: 30 μM, 2 h, vs basal. The procedure: AREc32 cells were plated in 24 multi-well plates on poly-D-Lysine-coated crystal slides (4 × 10^4 cells/well). Cells were treated with compounds 7a or 7b (30 µM) for 2 h and fixed by treatment with 4% paraformaldehyde solution in PBS (10 min). After 3 washings with PBS every 5 min, cells were permeabilized with 0.1% Triton X-100 solution for five min, washed 3 times with PBS (5 min) and incubated overnight with primary antibody anti-NRF2 (1:50, A-10, sc-365949, Santa Cruz Biotechnology, Dallas, TX, USA). Thereafter, cells were washed with PBS (3×, 5 min) and incubated with secondary antibody (1:500, 1 h). Finally, nuclei were stained with 5 µg/mL PBS solution of Hoechst 33342 (Invitrogen, Madrid, Spain) during the second wash. Finally, slides were mounted on coverslips (glycerol–PBS (1:1 v/v)), and images were obtained in a confocal microscope (TCS SPE, Leica, Wetzlar, Germany).
To obtain deeper insight into the mechanism of action of compounds 7, we evaluated their potential capacity to induce NRF2 nuclear localization and the activation of the phase II response. As previously described, NRF2 is sequestered at the cytoplasm by its repressor protein KEAP1, which mediates its proteasomal degradation. […] Thus, we firstly evaluated the capacity of compounds 7a and 7b to induce NRF2 nuclear localization as part of their mechanism of action. […]

Take `O=C1CN(CCOC(=O)CCCC[C@H]2CCSS2)[C@@H](c2ccccc2Cl)c2cc(Cl)ccc2N1` [(S,R)-7b, 2-((R)-7-Chloro-5-(2-chlorophenyl)-2-oxo-1,2,3,5-tetrahydro-4H-benzo[e][1,4]diazepin-4-yl)ethyl 5-((S)-1,2-dithiolan-3-yl)pentanoate]: the NRF2 nuclear localization entry is “predominantly nuclear localization of NRF2”.

As to `O=C1CN(CCOC(=O)CCCC[C@H]2CCSS2)[C@H](c2ccccc2Cl)c2cc(Cl)ccc2N1` [(S,S)-7a, 2-((S)-7-Chloro-5-(2-chlorophenyl)-2-oxo-1,2,3,5-tetrahydro-4H-benzo[e][1,4]diazepin-4-yl)ethyl 5-((S)-1,2-dithiolan-3-yl)pentanoate], the NRF2 nuclear localization result is “predominantly nuclear localization of NRF2”.
